From ChEMBL document CHEMBL3272271, “Folate antagonists. 13. 2,4-Diamino-6-](alpha,alpha,alpha-trifluoro-m-tolyl)thio]quinazoline and related 2,4-diamino-6-[(phenyl- and naphthyl)thio]quinazolines, a unique class of antimetabolites with extraordinary antimalarial and antibacterial effects” (J Med Chem, 1978)
≈ marks a conversion by molar mass, not a printed value. Calls of active or inactive are those of the source. The rule behind the calls is not given here.

Legend:
Plasmodium falciparum [1] = test: Antimalarial activity against chloroquine-susceptible, pyrimethamine-resistant Plasmodium falciparum Malayan Camp infected in Aotus trivirgatus owl monkey model assessed as cure from parasite infection at >2.5 mg/kg, po qd for 7 days relative to control; type: functional
Plasmodium falciparum [2] = test: Antimalarial activity against pyrimethamine-sensitive Plasmodium falciparum Vietnam Oak Knoll infected in Aotus trivirgatus owl monkey model assessed as cure from parasite infection at 0.6 mg/kg, po qd for 7 days relative to control; type: functional
Plasmodium gallinaceum [3] = test: Antimalarial activity against trophozoite-induced Plasmodium gallinaceum infected in white leghorn chicken assessed as increase in mean survival days of host at 40 mg/kg, sc administered 72 hrs after infection relative to control; type: functional; conditions: route subcutaneous
Staphylococcus aureus [4] = test: Antibacterial activity against Staphylococcus aureus UC-96 by gradient plate test; type: functional
Plasmodium berghei [5] = test: Antimalarial activity against cycloguanil-resistant Plasmodium berghei assessed as drug resistance; type: functional, organism-based
Plasmodium berghei [6] = test: Antimalarial activity against Plasmodium berghei infected in mouse assessed as increase in mean survival days of host at 1.25 mg/kg, sc administered 72 hrs after infection relative to control; type: functional; conditions: route subcutaneous
Plasmodium berghei [7] = test: Ratio of quinine hydrochloride SD90 to compound SD90 for trophozoite-induced Plasmodium berghei infected in mouse assessed as daily dose required to suppression of 90% parasite infection administered with diet for 6 days; type: functional
Plasmodium berghei [8] = test: Antimalarial activity against Plasmodium berghei infected in mouse assessed as disease cure from parasite infection at 160 mg/kg, sc administered 72 hrs after infection; type: functional, organism-based; parameters: dose 160 mg/kg
Plasmodium berghei [9] = test: Antimalarial activity against Plasmodium berghei infected in mouse assessed as increase in mean survival days of host at 2.5 mg/kg, sc administered 72 hrs after infection relative to control; type: functional; conditions: route subcutaneous
Enterococcus faecalis = test: Antibacterial activity against Streptococcus faecalis MGH-2 by gradient plate test; type: functional
Plasmodium berghei [10] = test: Antimalarial activity against Plasmodium berghei infected in mouse assessed as disease cure from parasite infection at 40 mg/kg, sc administered 72 hrs after infection; type: functional, organism-based; parameters: dose 40 mg/kg
Plasmodium gallinaceum [11] = test: Antimalarial activity against sporozoite-induced Plasmodium gallinaceum infected in white leghorn chicken assessed as disease cure from parasite infection at 160 mg/kg, sc administered 72 hrs after infection; type: functional, organism-based; parameters: dose 160 mg/kg
Plasmodium gallinaceum [12] = test: Antimalarial activity against trophozoite-induced Plasmodium gallinaceum infected in white leghorn chicken assessed as increase in mean survival days of host at 80 mg/kg, sc administered 72 hrs after infection relative to control; type: functional; conditions: route subcutaneous
Plasmodium berghei [13] = test: Antimalarial activity against Plasmodium berghei infected in mouse assessed as disease cure from parasite infection at 80 mg/kg, sc administered 72 hrs after infection; type: functional, organism-based; parameters: dose 80 mg/kg
Plasmodium berghei [14] = test: Antimalarial activity against Plasmodium berghei infected in mouse assessed as disease cure from parasite infection at 320 mg/kg, sc administered 72 hrs after infection; type: functional, organism-based; parameters: dose 320 mg/kg
Plasmodium berghei [15] = test: Antimalarial activity against Plasmodium berghei infected in mouse assessed as increase in mean survival days of host at 10 mg/kg, sc administered 72 hrs after infection relative to control; type: functional; conditions: route subcutaneous
Plasmodium falciparum [16] = test: Antimalarial activity against chloroquine-susceptible, pyrimethamine-resistant Plasmodium falciparum Malayan Camp infected in Aotus trivirgatus owl monkey model assessed as cure from parasite infection at 0.39 to 5 mg/kg, po qd for 7 days relative to control; type: functional; conditions: dose mg/kg 0.39-5
Plasmodium gallinaceum [17] = test: Antimalarial activity against trophozoite-induced Plasmodium gallinaceum infected in white leghorn chicken assessed as disease cure from parasite infection at 320 mg/kg, sc administered 72 hrs after infection; type: functional, organism-based; parameters: dose 320 mg/kg
Plasmodium berghei [18] = test: Antimalarial activity against Plasmodium berghei infected in mouse assessed as disease cure from parasite infection at 640 mg/kg, sc administered 72 hrs after infection; type: functional, organism-based; parameters: dose 640 mg/kg
Plasmodium gallinaceum [19] = test: Antimalarial activity against trophozoite-induced Plasmodium gallinaceum infected in white leghorn chicken assessed as increase in mean survival days of host at 320 mg/kg, sc administered 72 hrs after infection relative to control; type: functional; conditions: route subcutaneous
Plasmodium berghei [20] = test: Antimalarial activity against Plasmodium berghei infected in mouse assessed as disease cure from parasite infection at 20 mg/kg, sc administered 72 hrs after infection; type: functional, organism-based; parameters: dose 20 mg/kg
Pseudomonas aeruginosa = test: Antibacterial activity against Pseudomonas aeruginosa 28 by gradient plate test; type: functional
Staphylococcus aureus [21] = test: Antibacterial activity against drug-resistant Staphylococcus aureus S18713 by gradient plate test; type: functional
Plasmodium gallinaceum [22] = test: Antimalarial activity against sporozoite-induced Plasmodium gallinaceum infected in white leghorn chicken assessed as disease cure from parasite infection at 320 mg/kg, sc administered 72 hrs after infection; type: functional, organism-based; parameters: dose 320 mg/kg
Plasmodium berghei [23] = test: Antimalarial activity against chloroquine-resistant Plasmodium berghei assessed as drug resistance; type: functional, organism-based
Plasmodium falciparum [24] = test: Antimalarial activity against pyrimethamine-sensitive Plasmodium falciparum Vietnam Oak Knoll infected in Aotus trivirgatus owl monkey model assessed as cure from parasite infection at 0.098 to 1.56 mg/kg, po qd for 7 days relative to control; type: functional; conditions: dose mg/kg 0.098-1.56
Plasmodium berghei [25] = test: Antimalarial activity against trophozoite-induced Plasmodium berghei infected in mouse assessed as daily dose required to suppression of 90% parasite infection administered with diet for 6 days; type: functional
Escherichia coli = test: Antibacterial activity against Escherichia coli Vogel by gradient plate test; type: functional
Plasmodium gallinaceum [26] = test: Antimalarial activity against sporozoite-induced Plasmodium gallinaceum infected in white leghorn chicken assessed as disease cure from parasite infection at 80 mg/kg, sc administered 72 hrs after infection; type: functional, organism-based; parameters: dose 80 mg/kg
Plasmodium gallinaceum [27] = test: Antimalarial activity against trophozoite-induced Plasmodium gallinaceum infected in white leghorn chicken assessed as increase in mean survival days of host at 160 mg/kg, sc administered 72 hrs after infection relative to control; type: functional; conditions: route subcutaneous
Shigella sonnei = test: Antibacterial activity against Shigella sonnei C-10 by gradient plate test; type: functional
Plasmodium berghei [28] = test: Antimalarial activity against Plasmodium berghei infected in mouse assessed as increase in mean survival days of host at 5 mg/kg, sc administered 72 hrs after infection relative to control; type: functional; conditions: route subcutaneous
Plasmodium gallinaceum [29] = test: Antimalarial activity against trophozoite-induced Plasmodium gallinaceum infected in white leghorn chicken assessed as disease cure from parasite infection at 160 mg/kg, sc administered 72 hrs after infection; type: functional, organism-based; parameters: dose 160 mg/kg
Plasmodium gallinaceum [30] = test: Antimalarial activity against trophozoite-induced Plasmodium gallinaceum infected in white leghorn chicken assessed as increase in mean survival days of host at 20 mg/kg, sc administered 72 hrs after infection relative to control; type: functional; conditions: route subcutaneous
Plasmodium gallinaceum [31] = test: Antimalarial activity against trophozoite-induced Plasmodium gallinaceum infected in white leghorn chicken assessed as increase in mean survival days of host at 10 mg/kg, sc administered 72 hrs after infection relative to control; type: functional; conditions: route subcutaneous
Plasmodium gallinaceum [32] = test: Antimalarial activity against trophozoite-induced Plasmodium gallinaceum infected in white leghorn chicken assessed as increase in mean survival days of host at 1.25 mg/kg, sc administered 72 hrs after infection relative to control; type: functional; conditions: route subcutaneous
Plasmodium gallinaceum [33] = test: Antimalarial activity against sporozoite-induced Plasmodium gallinaceum infected in white leghorn chicken assessed as disease cure from parasite infection at 40 mg/kg, sc administered 72 hrs after infection; type: functional, organism-based; parameters: dose 40 mg/kg
Plasmodium berghei [34] = test: Antimalarial activity against Plasmodium berghei infected in mouse assessed as increase in mean survival days of host at 40 mg/kg, sc administered 72 hrs after infection relative to control; type: functional; conditions: route subcutaneous
Plasmodium berghei [35] = test: Antimalarial activity against Plasmodium berghei infected in mouse assessed as disease cure from parasite infection at 10 mg/kg, sc administered 72 hrs after infection; type: functional, organism-based; parameters: dose 10 mg/kg
Plasmodium gallinaceum [36] = test: Antimalarial activity against trophozoite-induced Plasmodium gallinaceum infected in white leghorn chicken assessed as increase in mean survival days of host at 2.5 mg/kg, sc administered 72 hrs after infection relative to control; type: functional; conditions: route subcutaneous
Plasmodium berghei [37] = test: Antimalarial activity against Plasmodium berghei infected in mouse assessed as increase in mean survival days of host at 20 mg/kg, sc administered 72 hrs after infection relative to control; type: functional; conditions: route subcutaneous
Plasmodium gallinaceum [38] = test: Antimalarial activity against trophozoite-induced Plasmodium gallinaceum infected in white leghorn chicken assessed as disease cure from parasite infection at 80 mg/kg, sc administered 72 hrs after infection; type: functional, organism-based; parameters: dose 80 mg/kg
Plasmodium gallinaceum [39] = test: Antimalarial activity against sporozoite-induced Plasmodium gallinaceum infected in white leghorn chicken assessed as disease cure from parasite infection at 20 mg/kg, sc administered 72 hrs after infection; type: functional, organism-based; parameters: dose 20 mg/kg
Plasmodium gallinaceum [40] = test: Antimalarial activity against trophozoite-induced Plasmodium gallinaceum infected in white leghorn chicken assessed as increase in mean survival days of host at 5 mg/kg, sc administered 72 hrs after infection relative to control; type: functional; conditions: route subcutaneous
Plasmodium gallinaceum [41] = test: Antimalarial activity against sporozoite-induced Plasmodium gallinaceum infected in white leghorn chicken assessed as increase in mean survival days of host at 10 mg/kg, sc administered 72 hrs after infection relative to control; type: functional; conditions: route subcutaneous
Plasmodium gallinaceum [42] = test: Antimalarial activity against sporozoite-induced Plasmodium gallinaceum infected in white leghorn chicken assessed as disease cure from parasite infection at 10 mg/kg, sc administered 72 hrs after infection; type: functional, organism-based; parameters: dose 10 mg/kg
Plasmodium gallinaceum [43] = test: Antimalarial activity against trophozoite-induced Plasmodium gallinaceum infected in white leghorn chicken assessed as increase in mean survival days of host at 0.63 mg/kg, sc administered 72 hrs after infection relative to control; type: functional; conditions: route subcutaneous

Nc1nc(N)c2cc(Sc3ccc4ccccc4c3)ccc2n1
Activity (Plasmodium falciparum [1]): >50%
Activity (Plasmodium falciparum [2]): >50%
MST (Plasmodium gallinaceum [3]): 12.4 days
MIC (Staphylococcus aureus [4]): < 0.25 µg/mL
Activity (Plasmodium berghei [5]): Active
MST (Plasmodium berghei [6]): 2.9 days
Ratio (Plasmodium berghei [7]): 880
Activity (Plasmodium berghei [8]): Active
MST (Plasmodium berghei [9]): 5.3 days
MIC (Enterococcus faecalis): < 0.25 µg/mL
Activity (Plasmodium berghei [10]): Active
Activity (Plasmodium gallinaceum [11]): Active
MST (Plasmodium gallinaceum [12]): 16.2 days
Activity (Plasmodium berghei [13]): Active
Activity (Plasmodium berghei [14]): Active
MST (Plasmodium berghei [15]): 11.3 days
Activity (Plasmodium falciparum [16]): >50%
Activity (Plasmodium gallinaceum [17]): Active
Activity (Plasmodium berghei [18]): Active
MST (Plasmodium gallinaceum [19]): 16 days
Activity (Plasmodium berghei [20]): Active
MIC (Pseudomonas aeruginosa): > 25 µg/mL
MIC (Staphylococcus aureus [21]): < 0.25 µg/mL
Activity (Plasmodium gallinaceum [22]): Active
Activity (Plasmodium berghei [23]): inactive
Activity (Plasmodium falciparum [24]): >50%
SD90 (Plasmodium berghei [25]): 0.08 mg/kg/day
MIC (Escherichia coli): < 0.25 µg/mL
Activity (Plasmodium gallinaceum [26]): Active
MST (Plasmodium gallinaceum [27]): 15 days
MIC (Shigella sonnei): 2.5 µg/mL (≈ 7.85 µM)
MST (Plasmodium berghei [28]): 6.5 days
Activity (Plasmodium gallinaceum [29]): Active
MST (Plasmodium gallinaceum [30]): 7.8 days
MST (Plasmodium gallinaceum [31]): 6.2 days

Cc1ccc(Cl)cc1Sc1ccc2nc(N)nc(N)c2c1
MST (Plasmodium gallinaceum [3]): 7.8 days
MIC (Staphylococcus aureus [4]): < 0.25 µg/mL
MST (Plasmodium berghei [6]): 2.7 days
Ratio (Plasmodium berghei [7]): 170
Activity (Plasmodium berghei [8]): Active
MST (Plasmodium berghei [9]): 4.1 days
MST (Plasmodium gallinaceum [32]): 0 days
MIC (Enterococcus faecalis): < 0.25 µg/mL
Activity (Plasmodium berghei [10]): Active
Activity (Plasmodium gallinaceum [11]): Active
MST (Plasmodium gallinaceum [12]): 18 days
Activity (Plasmodium berghei [13]): Active
Activity (Plasmodium berghei [14]): Active
Activity (Plasmodium gallinaceum [33]): Active
MST (Plasmodium berghei [15]): 8.8 days
MST (Plasmodium berghei [34]): 25.7 days
Activity (Plasmodium berghei [35]): Active
MST (Plasmodium gallinaceum [36]): 1.4 days
MST (Plasmodium berghei [37]): 17.8 days
Activity (Plasmodium gallinaceum [17]): Active
Activity (Plasmodium gallinaceum [38]): Active
Activity (Plasmodium berghei [18]): Active
Activity (Plasmodium berghei [20]): Active
MIC (Pseudomonas aeruginosa): > 25 µg/mL
MIC (Staphylococcus aureus [21]): < 0.25 µg/mL
Activity (Plasmodium gallinaceum [22]): Active
Activity (Plasmodium gallinaceum [39]): Active
SD90 (Plasmodium berghei [25]): 0.43 mg/kg/day
MIC (Escherichia coli): < 0.25 µg/mL
MST (Plasmodium gallinaceum [40]): 3.6 days
Activity (Plasmodium gallinaceum [26]): Active
MIC (Shigella sonnei): 1.5 µg/mL (≈ 4.73 µM)
MST (Plasmodium berghei [28]): 9.5 days
MST (Plasmodium gallinaceum [41]): 7 days
Activity (Plasmodium gallinaceum [42]): Active
MST (Plasmodium gallinaceum [43]): 0 days
Activity (Plasmodium gallinaceum [29]): Active
MST (Plasmodium gallinaceum [30]): 7.4 days
MST (Plasmodium gallinaceum [31]): 5.8 days
